Consider 21 compounds from patent US20230131899A1, “INHIBITORS OF MICROBIALLY INDUCED AMYLOID” (Axial Therapeutics, Inc., priority 2020, published 2023).

Read-outs that look alike come from different tables or passages of the source.

In this assay the test system is CsgA gene expression (csgBAC promoter-GFP reporter) in E. coli UTI89. Nature of the assay: In vitro live cell fluorescent reporter assay of CsgA transcription (Reporter Assay). As to conditions: Escherichia coli. Type of assay: cell-based. In a few lines: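 Chromosomal single-copy csgBAC promoter–GFP reporter in E. coli UTI89, started at OD600 0.003 in YESCA broth with compound (0.14–100 μM, 1% DMSO), 20 h at 27 °C. GFP (ex 485/em 525 nm) background-subtracted and normalized to vehicle; IC50 and X[50] from curve fits. OD600 tracked growth effects.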

Setting [1] is: read-out: Reporter Assay Abs IC50 (activity range), median Abs IC50 in the CsgA reporter assay, class symbol.
[2] abbreviates: read-out: Reporter Assay Abs IC50 (μM), median Abs IC50 in the CsgA reporter assay, N/A = maximum expression reduction is <50% of control.

With `O=C(O)C1CSc2c(-c3cccc(C(F)(F)F)c3)c(Cc3cccc4ccccc34)cc(=O)n21` (single isomer, unassigned) [Compound 011a, 7-(naphthalen-1-ylmethyl)-5-oxo-8-(3-(trifluoromethyl)phenyl)-2,3-dihydro-5H-thiazolo[3,2-a]pyridine-3-carboxylic acid], the IC50 under setting [1] was 1.3 to 4.5 µM and the IC50 under setting [2] worked out at 4.4 µM.

Regarding `O=C(O)C1CN(CCCO)S(=O)(=O)c2c(-c3cccc(C(F)(F)F)c3)c(Cc3cccc4ccccc34)c(NC3CCCC3)c(=O)n21` (stereo not drawn) [Compound 120, 7-(cyclopentylamino)-2-(3-hydroxypropyl)-8-(naphthalen-1-ylmethyl)-6-oxo-9-(3-(trifluoromethyl)phenyl)-3,4-dihydro-2H,6H-pyrido[1,2-e][1,2,5]thiadiazine-4-carboxylic acid 1,1-dioxide], the IC50 is 1.3 to 4.5 µM under setting [1] and 3.1 µM under setting [2].

For `CN(C)Cc1c(Cc2cccc3ccccc23)c(-c2cccc(C(F)(F)F)c2)c2n(c1=O)C(C(=O)O)CS2` (stereo not drawn) [Compound 075, 6-((dimethylamino)methyl)-7-(naphthalen-1-ylmethyl)-5-oxo-8-(3-(trifluoromethyl)phenyl)-2,3-dihydro-5H-thiazolo[3,2-a]pyridine-3-carboxylic acid], the IC50 runs as follows: under setting [1], 4.6 to 10 µM; under setting [2], 5.6 µM.

With `CCN1CC(C(=O)O)n2c(c(-c3cccc(C(F)(F)F)c3)c(Cc3cccc4ccccc34)cc2=O)S1(=O)=O` (single isomer, unassigned) [Compound 015a, 2-ethyl-8-(naphthalen-1-ylmethyl)-6-oxo-9-(3-(trifluoromethyl)phenyl)-3,4-dihydro-2H,6H-pyrido[1,2-e][1,2,5]thiadiazine-4-carboxylic acid 1,1-dioxide], the IC50 by setting is: under setting [1], above 10 µM; under setting [2], 21.7 µM.

Regarding `CCCN1CC(C(=O)O)n2c(c(-c3cccc(C(F)(F)F)c3)c(Cc3cccc4ccccc34)c(NC3CCOCC3)c2=O)S1(=O)=O` (stereo not drawn) [Compound 127, 8-(naphthalen-1-ylmethyl)-6-oxo-2-propyl-7-((tetrahydro-2H-pyran-4-yl)amino)-9-(3-(trifluoromethyl)phenyl)-3,4-dihydro-2H,6H-pyrido[1,2-e][1,2,5] thiadiazine-4-carboxylic acid 1,1-dioxide], the IC50 was 4.6 to 10 µM under setting [1] and 4.8 µM under setting [2].

`Nc1c(Cc2cccc3ccccc23)c(-c2cccc(C(F)(F)F)c2)c2n(c1=O)C(C(=O)O)CS2(=O)=O` (stereo not drawn) [Compound 023, 6-amino-7-(naphthalen-1-ylmethyl)-5-oxo-8-(3-(trifluoromethyl)phenyl)-2,3-dihydro-5H-thiazolo[3,2-a]pyridine-3-carboxylic acid 1,1-dioxide]: the IC50 was above 10 µM under setting [1] and 19.6 µM under setting [2].

For `CN1CC(C(=O)O)n2c(c(-c3cccc(C(F)(F)F)c3)c(Cc3cccc4ccccc34)c(C(N)=O)c2=O)S1(=O)=O` (stereo not drawn) [Compound 109, 7-carbamoyl-2-methyl-8-(naphthalen-1-ylmethyl)-6-oxo-9-(3-(trifluoromethyl)phenyl)-3,4-dihydro-2H,6H-pyrido[1,2-e][1,2,5]thiadiazine-4-carboxylic acid 1,1-dioxide], the IC50 is, setting by setting: under setting [1], 1.3 to 4.5 µM; under setting [2], 1.9 µM.

For `COc1ccc(CN2C[C@@H](C(=O)O)n3c(c(-c4cccc(C(F)(F)F)c4)c(Cc4cccc5ccccc45)cc3=O)S2(=O)=O)cc1` (single isomer, unassigned) [Compound 026a], the IC50 by setting is: under setting [1], 1.3 to 4.5 µM; under setting [2], 2 µM.

For `NC(=O)CN1CC(C(=O)O)n2c(c(-c3cccc(C(F)(F)F)c3)c(Cc3cccc4ccccc34)cc2=O)S1(=O)=O` (stereo not drawn) [Compound 028, 2-(2-amino-2-oxoethyl)-8-(naphthalen-1-ylmethyl)-6-oxo-9-(3-(trifluoromethyl)phenyl)-3,4-dihydro-2H,6H-pyrido[1,2-e][1,2,5]thiadiazine-4-carboxylic acid 1,1-dioxide], the IC50 is above 10 µM under setting [1] and 18.2 µM under setting [2].

As to `O=C(O)C1CN(CCCCCO)S(=O)(=O)c2c(-c3cccc(C(F)(F)F)c3)c(Cc3cccc4ccccc34)c(NC3CCCC3)c(=O)n21` (stereo not drawn) [Compound 122, 7-(cyclopentylamino)-2-(5-hydroxypentyl)-8-(naphthalen-1-ylmethyl)-6-oxo-9-(3-(trifluoromethyl)phenyl)-3,4-dihydro-2H,6H-pyrido[1,2-e][1,2,5]thiadiazine-4-carboxylic acid 1,1-dioxide], the IC50 is, setting by setting: under setting [1], 1.3 to 4.5 µM; under setting [2], 1.9 µM.

As for `CN(C)CCN1CC(C(=O)O)n2c(c(-c3cccc(C(F)(F)F)c3)c(Cc3cccc4ccccc34)cc2=O)S1(=O)=O` (stereo not drawn) [Compound 017, 2-(2-(dimethylamino)ethyl)-8-(naphthalen-1-ylmethyl)-6-oxo-9-(3-(trifluoromethyl)phenyl)-3,4-dihydro-2H,6H-pyrido[1,2-e][1,2,5]thiadiazine-4-carboxylic acid 1,1-dioxide], the IC50 was 1.3 to 4.5 µM under setting [1] and 2.7 µM under setting [2].

For the compound `O=C(O)[C@H]1CS(=O)(=O)c2c(-c3cccc(C(F)(F)F)c3)c(Cc3cccc4ccccc34)cc(=O)n21` (single isomer, unassigned) [Compound 010b, 7-(naphthalen-1-ylmethyl)-5-oxo-8-(3-(trifluoromethyl)phenyl)-2,3-dihydro-5H-thiazolo[3,2-a]pyridine-3-carboxylic acid 1,1-dioxide], the IC50 reads like this: under setting [1], above 10 µM; under setting [2], 58.5 µM.

As to `CC(C)N1CC(C(=O)O)n2c(c(-c3cccc(C(F)(F)F)c3)c(Cc3cccc4ccccc34)c(NC3CCCC3)c2=O)S1(=O)=O` (stereo not drawn) [Compound 123, 7-(cyclopentylamino)-2-isopropyl-8-(naphthalen-1-ylmethyl)-6-oxo-9-(3-(trifluoromethyl)phenyl)-3,4-dihydro-2H,6H-pyrido[1,2-e][1,2,5]thiadiazine-4-carboxylic acid 1,1-dioxide], the IC50 was 1.3 to 4.5 µM under setting [1] and 3.3 µM under setting [2].

As to `CCCN1CC(C(=O)O)n2c(c(-c3cccc(C(F)(F)F)c3)c(Cc3cccc4ccccc34)cc2=O)S1(=O)=O` (racemic) [Compound 016, 8-(naphthalen-1-ylmethyl)-6-oxo-2-propyl-9-(3-(trifluoromethyl)phenyl)-3,4-dihydro-2H,6H-pyrido[1,2-e][1,2,5]thiadiazine-4-carboxylic acid 1,1-dioxide], the IC50 is, setting by setting: under setting [1], 4.6 to 10 µM; under setting [2], 5 µM.

With `O=C(O)[C@@H]1CS(=O)(=O)c2c(-c3cccc(C(F)(F)F)c3)c(Cc3cccc4ccccc34)cc(=O)n21` (single isomer, unassigned) [Compound 010a, 7-(naphthalen-1-ylmethyl)-5-oxo-8-(3-(trifluoromethyl)phenyl)-2,3-dihydro-5H-thiazolo[3,2-a]pyridine-3-carboxylic acid 1,1-dioxide], the IC50 was above 10 µM under setting [1] and 43.9 µM under setting [2].

As to `CN1CC(C(=O)O)n2c(c(-c3cccc(C(F)(F)F)c3)c(Cc3cccc4ccccc34)c(N)c2=O)S1(=O)=O` (stereo not drawn) [Compound 074, 7-amino-2-methyl-8-(naphthalen-1-ylmethyl)-6-oxo-9-(3-(trifluoromethyl)phenyl)-3,4-dihydro-2H,6H-pyrido[1,2-e][1,2,5]thiadiazine-4-carboxylic acid 1,1-dioxide], the IC50 was above 10 µM under setting [1] and 29.2 µM under setting [2].

Consider `O=C(O)CN1CC(C(=O)O)n2c(c(-c3cccc(C(F)(F)F)c3)c(Cc3cccc4ccccc34)cc2=O)S1(=O)=O` (stereo not drawn) [Compound 018, 2-(carboxymethyl)-8-(naphthalen-1-ylmethyl)-6-oxo-9-(3-(trifluoromethyl)phenyl)-3,4-dihydro-2H,6H-pyrido[1,2-e][1,2,5]thiadiazine-4-carboxylic acid 1,1-dioxide], for which the IC50 is above 10 µM under setting [1] and 148 µM under setting [2].

On to `CCCCCN1CC(C(=O)O)n2c(c(-c3cccc(C(F)(F)F)c3)c(Cc3cccc4ccccc34)cc2=O)S1(=O)=O` (racemic) [Compound 025, 8-(naphthalen-1-ylmethyl)-6-oxo-2-pentyl-9-(3-(trifluoromethyl)phenyl)-3,4-dihydro-2H,6H-pyrido[1,2-e][1,2,5]thiadiazine-4-carboxylic acid 1,1-dioxide], for which the IC50 runs as follows: under setting [1], 1.3 to 4.5 µM; under setting [2], 1.9 µM.

On to `CN1CC(C(=O)O)n2c1c(-c1cccc(C(F)(F)F)c1)c(Cc1cccc3ccccc13)c(Br)c2=O` (stereo not drawn) [Compound 119, 6-bromo-1-methyl-7-(naphthalen-1-ylmethyl)-5-oxo-8-(3-(trifluoromethyl)phenyl)-1,2,3,5-tetrahydroimidazo[1,2-a]pyridine-3-carboxylic acid], for which the IC50 was 1.3 to 4.5 µM under setting [1] and 2.5 µM under setting [2].

On to `CCc1c(Cc2cccc3ccccc23)c(-c2cccc(C(F)(F)F)c2)c2n(c1=O)C(C(=O)O)CN(C1CCCCC1)S2(=O)=O` (stereo not drawn) [Compound 116, 2-cyclohexyl-7-ethyl-8-(naphthalen-1-ylmethyl)-6-oxo-9-(3-(trifluoromethyl)phenyl)-3,4-dihydro-2H,6H-pyrido[1,2-e][1,2,5]thiadiazine-4-carboxylic acid 1,1-dioxide], for which the IC50 by setting is: under setting [1], 1.3 to 4.5 µM; under setting [2], 1.5 µM.

Consider `CN1CC(C(N)=O)n2c(c(-c3cccc(C(F)(F)F)c3)c(Cc3cccc4ccccc34)cc2=O)S1(=O)=O` (stereo not drawn) [Compound 030, 2-methyl-8-(naphthalen-1-ylmethyl)-6-oxo-9-(3-(trifluoromethyl)phenyl)-3,4-dihydro-2H,6H-pyrido[1,2-e][1,2,5]thiadiazine-4-carboxamide 1,1-dioxide], for which the IC50 reads like this: under setting [1], 4.6 to 10 µM; under setting [2], 5 µM.
